These results are taken from patent publication US20150190534A1, “COMPOUNDS FOR USE AS POSITRON EMISSION IMAGING AGENTS” (UNIVERSITY OF BERN, priority 2014, published 2015).

Substitutions are numbered along the chain they refer to. Read-outs that look alike come from different tables or passages of the source.

Series [1] addresses T1, mutant T877A-AR (pSG5AR-T877A) transfected COS-7 cells (Homo sapiens, UniProt P10275, T878A).
T1 construct: pSG5-AR with full-length cDNA of human WT-AR; expressed in transfected cells; host or cells: COS-7
T1 sequence (P10275 1-920 T878A): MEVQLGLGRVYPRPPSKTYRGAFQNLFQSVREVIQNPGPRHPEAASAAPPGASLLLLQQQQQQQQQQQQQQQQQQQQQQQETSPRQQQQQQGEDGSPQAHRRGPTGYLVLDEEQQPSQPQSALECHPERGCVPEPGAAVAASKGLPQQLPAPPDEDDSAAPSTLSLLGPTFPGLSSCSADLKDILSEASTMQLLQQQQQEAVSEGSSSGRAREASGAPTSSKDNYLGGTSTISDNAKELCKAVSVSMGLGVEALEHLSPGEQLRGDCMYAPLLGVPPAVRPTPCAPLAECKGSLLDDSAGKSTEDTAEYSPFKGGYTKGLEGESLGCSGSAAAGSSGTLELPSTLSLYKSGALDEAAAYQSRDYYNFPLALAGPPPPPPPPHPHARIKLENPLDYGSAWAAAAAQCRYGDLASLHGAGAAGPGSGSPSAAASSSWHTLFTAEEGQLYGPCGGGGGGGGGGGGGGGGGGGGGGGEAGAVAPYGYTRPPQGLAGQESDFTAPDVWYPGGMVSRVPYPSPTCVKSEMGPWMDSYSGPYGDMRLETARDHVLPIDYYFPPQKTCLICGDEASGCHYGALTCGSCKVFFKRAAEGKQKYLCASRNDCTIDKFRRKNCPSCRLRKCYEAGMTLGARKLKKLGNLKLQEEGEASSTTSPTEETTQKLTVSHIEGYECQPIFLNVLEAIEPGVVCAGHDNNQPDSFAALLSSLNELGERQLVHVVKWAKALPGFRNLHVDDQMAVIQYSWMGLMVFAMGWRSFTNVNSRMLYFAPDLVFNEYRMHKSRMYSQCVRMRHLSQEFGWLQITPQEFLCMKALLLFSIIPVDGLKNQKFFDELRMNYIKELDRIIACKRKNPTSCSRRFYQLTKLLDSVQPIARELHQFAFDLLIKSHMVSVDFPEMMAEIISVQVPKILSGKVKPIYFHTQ
Type of series: cell-based. An excerpt:
Prostate. Jun. 1, 2011; 71(8):872-880.), progesterone receptor (pSG5-PR-alpha, pSG5-pPRbeta, PR), glucocorticoid (pCMV5-hGR-alpha, GR) and mineralocorticoid receptors (pRShMR, MR), estrogen receptors (pCMV5-ER-alpha, pCMV5-ER-beta, ER). T877A-AR was generated by site-directed mutagenesis as described in Andrieu T, Bertolini R, Nichols S E, et al. A novel steroidal antiandrogen targeting wild type and mutant androgen receptors. Biochem Pharmacol. Dec. 1, 2011; 82(11):1651-1662. Cells seeded on 6-well plates (density: 5×10^5/well) were transfected 96 h later with 1 μg of empty (pcDNA3) or human AR encoding plasmids using 3 μl of FuGENE-HD transfection reagent (Roche, Rotkreuz, Switzerland). One day after transfection the medium was changed to 2% charcoal treated (CT) FBS containing medium.
Then cells were washed with ice cold PBS. Collected medium and PBS were considered as the unbound fraction. Cells were incubated for 5 min in glycine buffer 50 mM (pH 2.8), washed with PBS (membrane fraction) and lysed with RIPA buffer (Sigma, R0278) (cellular fraction). The radioactivity was measured by gamma counting. Cellular uptake of radioactivity was corrected by the protein amount (BCA assay, Pierce).

How the values of series [2] were obtained:
(§1) Male SCID-mice (Charles River, Sulzfeld, Germany) were subcutaneously injected with C4-2 and PC-3 cells into both shoulders as previously described (21).
(§2) Images were reconstructed at 0.6 mm thickness using a H31s medium smooth plus kernel. […] For biodistribution studies mice were sacrificed using CO2 after 1-3 h, designated organs and tissues harvested and weighed. Radioactivity was measured in a Gamma-counter (Wizard, Perkin Elmer) and the percentage of injected dose per gram of tissue (% ID/g) calculated.

In series [3] the test system is T877A-AR positive C4-2 tumors. Particulars: 1 h. As to the method:
as §1, §2

Series [4] deals with receptor negative PC-3 tumors. The settings on record: 1 h. On the procedure:
as §1, §2

The next series has as its target T2, human WT-AR (Homo sapiens, UniProt P10275).
T2 construct: pSG5-AR with full-length cDNA of human WT-AR; expressed in transfected cells; host or cells: COS-7
T2 sequence (P10275 1-920): T1 sequence (P10275 1-920 T878A) with A878T
Nature of the series: Whole cell competitive binding assay, WT-AR. As to the method:
(§3) Prostate. Jun. […] T877A-AR was generated by site-directed mutagenesis as described in Andrieu T, Bertolini R, Nichols S E, et al. A novel steroidal antiandrogen targeting wild type and mutant androgen receptors. Biochem Pharmacol. Dec. […] Cells seeded on 6-well plates (density: 5×10^5/well) were transfected 96 h later with 1 μg of empty (pcDNA3) or human AR encoding plasmids using 3 μl of FuGENE-HD transfection reagent (Roche, Rotkreuz, Switzerland). One day after transfection the medium was changed to 2% charcoal treated (CT) FBS containing medium.
(§4) In 24 wells 50′000 COS-7 cells were seeded and transfected with 500 ng of receptor encoding plasmids. One day later, cells were washed and cultured in 0.5 ml of phenol-red free DMEM with 2% CT-FBS for another 24 h. […] Supernatant and cells were mixed with scintillation liquid (Irgasafe, Perkin Elmer) and radioactivity counted (Tri-Carb 2000CA, Canberra Packard). The percentage of binding in presence and absence of derivative was calculated relatively to total dpm and results expressed as percentage of binding relative to the ^3H-tracer alone (100%).

The next series deals with T3, T877A-AR (Homo sapiens, UniProt P10275, T878A).
T3 construct: pSG5-AR with full-length cDNA of human WT-AR; expressed in transfected cells; host or cells: COS-7
T3 sequence (P10275 1-920 T878A): T1 sequence (P10275 1-920 T878A)
Nature of the series: Whole cell competitive binding assay, T877A-AR. On the procedure: as §3, §4

For series [5], the system named is PC-3 AR-negative xenografts. In words: PET/CT imaging, PC-3 tumor bearing mice. The format is in vivo, mouse. Particulars: 3 h after injection.
Series [6] deals with T877A-AR positive C4-2 tumors. Nature of the series: PET/CT imaging, C4-2 tumor bearing mice. Type of series: in vivo, mouse.

For `C[N+](C)(CF)CCO` [^18F-FCH, ^18F-fluorocholine], the “preferential uptake by transfected cells” value in series [1] (pcDNA3, WT-AR or T877A-AR transfected COS-7 cells) is given as “did not reveal any preferential uptake”. In addition, in series [1] (transfected COS-7 cells, washing procedures), the “radioactivity after washing procedures” value was “eliminated”. Also, in series [2] (1 h), the Bone came to 27.99 ± 5.95 % ID/g, the Brain amounted to 9.61 ± 2.13 % ID/g, the Heart turned out to be 76.93 ± 5.18 % ID/g and the Intestine came out at 22.97 ± 4.67 % ID/g. In series [2] (1 h), this compound showed a Kidney of 164.72 ± 33.57 % ID/g, a Liver of 48.82 ± 7.55 % ID/g, a Lung of 97.42 ± 23.21 % ID/g and a Muscle of 10.36 ± 2.58 % ID/g. In addition, in series [2] (1 h), the Prostate is on record as 48.26 ± 19.35 % ID/g, the Spleen was determined as 66.48 ± 19.45 % ID/g and the Testis amounted to 13.58 ± 2.64 % ID/g. The route of metabolism/excretion result in series [2] (tumor bearing SCID-mice) was “excreted predominantly by the kidney”. Moreover, the “C4-2 Tumor” value in series [3] is listed as 31.62 ± 3.88 % ID/g. The “PC-3 Tumor” value in series [4] is listed as 5.65 ± 1.37 % ID/g.

`C[C@]12CC[C@H](O)C[C@@H]1CC[C@@H]1[C@@H]2CC[C@]2(C)[C@@H](OC(=O)NCCCF)CC[C@@H]12` [RB448]: the IC50 on human WT-AR came to 2.21 µM; on T877A-AR, 0.0377 µM. Moreover, at T877A-AR (comparison of IC50 values), the “affinity/selectivity for T877A-AR versus WT-AR” value is “even more favorable selectivity”.

`C[C@]12CCC(=O)C[C@@H]1CC[C@@H]1[C@@H]2CC[C@]2(C)[C@@H](OC(=O)NCCCF)CC[C@@H]12` [RB390]: the “PET signal in PC-3 tumors” value in series [5] is “remained at background levels”. For the same compound, the IC50 is 0.357 µM at human WT-AR and 0.032 µM on T877A-AR. In series [6] (3 h, excess of unlabelled DHT injected in parallel), the “PET signal in C4-2 tumors with unlabelled DHT” value is given as “nearly full receptor blockade”. Also, in series [6] (3 h after injection), the “PET signal in C4-2 tumors” value was “bound specifically”.

For ^18F-fluorodeoxyglucose [^18F-FDG], in series [1], the “preferential uptake by transfected cells” value is on record as “did not reveal any preferential uptake” and the “radioactivity after washing procedures” value is “eliminated”.
